Results on one compound are retold here after PubChem BioAssay AID504935 (The Scripps Research Institute Molecular Screening Center, 2011).

For one test, the system named is U87 cell line. As to the kind of experiment: cytotoxicity in glioblastoma cells, dose response, cytotoxicity control for Wee1 degradation inhibitor project, cell-based, luminescence, U87, U87 vII (AID 504935). The following applies: luminescence viability.
In a further test the test system is U87 vII cell line. Described as above. The following applies: luminescence viability.

As for `O=[N+]([O-])c1cccc2[nH]c(CNc3nc(N4CCOCC4)nc4c3ncn4-c3ccsc3)nc12`, the IC50 (usually the concentration needed to halve the response being measured) in the test with U87 cell line is 95.1 nM; in the test on U87 vII cell line, 23.4 nM.
